{"source": "patent US12514935B2", "about": "“Nanocarrier systems for imaging and delivery of active agents” (Kansas State University Research Foundation, priority 2018, dated 2026)", "key": {"[1]": {"tested_on": "THP-1 cells", "experiment": "In vitro cytokine release assay of BNc", "assay_type": "cell-based, human", "conditions": "THP-1, 100 μg/mL (LPS 3 μg/mL), 24 h", "description": "The immunogenicity of the prepared BNc along with the bare PLGA NP were tested for its immunoregulatory potential using standard cytokine release assay. In brief, 8×10^5 THP-1 cells were seeded in a 12-well plate and treated with bare PLGA NP (100 μg/mL), NKM (100 μg/mL), Gd-lipid (100 μg/mL) and BNc (100 μg/mL) at 37° C. for 24 h. After 24 h incubation, cell culture supernatants were collected, centrifuged, removed cell debris and stored at −20° C. as small aliquots. For cytokine assay, samples were thawed and analyzed for pro-inflammatory cytokines, IL-1β (LOD: 1.7 pg/ml), IL-6 (LOD: 1.5 pg/mL), and TNF-α (LOD: 1 pg/mL) using Magnetic Human Cytokine Multiplex Assays Kit (R&D Systems, Inc. Minneapolis, MN) in Luminex MagPix® instrument (Millipore Inc.) as per the manufacturer recommendations. For positive control, cells were dosed with 3 μg/mL of lipopolysaccharide (LPS) for 24 h."}, "[2]": {"tested_on": "THP-1 cells", "experiment": "In vitro immunogenicity cytokine release assay (ELISA)", "assay_type": "cell-based, human", "conditions": "THP-1, 24 h incubation", "description": "The immunogenicity of NKsomes in THP-1 cells were tested for its inflammatory response using a cytokine release assay. In brief, 7.5×10^5 THP-1 cells were seeded in 12-well plate and treated with isolated NKM (100 μg/mL), NKsomes (100 μg/mL), Free DOX (5 μg/mL), DOX@NKsomes (equivalent DOX load) and Bare liposomes (100 μg/mL) for 24 h incubation. Positive (LPS, 3 μg/mL) and negative controls were maintained for assessing pro-inflammatory cytokines in THP-1 cells. The treated cell culture supernatants were collected, centrifuged to remove cell debris, aliquot and stored at −20° C. until needed. Samples were thawed and used for analyzing pro-inflammatory cytokines, IL-1β (0.8 pg/ml), IL-6 (0.4 pg/mL) and TNF-α (0.7 pg/mL) using quantitative enzyme-linked immunosorbent assay KIT (ELISA) (R&D Systems, Inc. Minneapolis, MN) as recommended by the manufacturer. Sample […] was measured at 450 nm with the wavelength correction at 540 nm using Synergy H1 hybrid microplate reader (BioTek Instruments Inc. VT)."}, "[3]": {"tested_on": "MCF-7 cells", "experiment": "MTT assay", "assay_type": "cell-based, human", "conditions": "MCF-7, DOX 0.5-15 μM, 24 h", "description": "(§1) For MTT analysis, MCF-7 cells and NHost cells were treated with NKsomes with different DOX concentration along with free DOX and bare NKsomes. In brief, 2×10^4 cells per well in the respective medium were seeded in a 96-well plate and incubated for 24 h. While the cell reaches 80% confluence, the media was replaced with different DOX concentration of free DOX and NKsomes (0.5, 1.5, 3, 5, 10 and 15 uM) and incubated for additional 24 h. Control cells were maintained without DOX treatment. After incubation, MTT dye was added according to the manual instruction and further incubated for 3 h. The insoluble formation crystals were solubilized using DMSO, and the absorbance was read at 590 and 630 nm using microplate reader (BioTek, Synergy H1 Hybrid reader)."}, "[4]": {"tested_on": "NHost cells", "experiment": "MTT assay", "assay_type": "cell-based, human", "conditions": "DOX 0.5-15 μM, 24 h", "description": "as §1"}, "[5]": {"tested_on": "MCF-7 cells", "experiment": "Cell cycle analysis (propidium iodide, FACS)", "assay_type": "cell-based, human", "conditions": "MCF-7, DOX 5 μM, 12 h", "description": "(§2) The in vitro cytotoxicity of DOX@NKsome and the equivalent Free DOX were investigated against MCF-7 cells and NHost using a cell cycle analysis and an MTT assay. For cell cycle analysis, 1×10^6 cells were treated with 5 μM of Free DOX, equivalent DOX@NKsomes and bare NKsomes (equivalent to DOX-loaded) for 12 h. After incubation, cells were harvested, fixed in 70% ethanol overnight, washed with PBS twice and then followed propidium iodide staining. Further, the samples were analyzed in FACS Calibur for cell cycle analysis."}, "[6]": {"tested_on": "NHost", "experiment": "Cell cycle analysis (propidium iodide, FACS)", "assay_type": "cell-based, human", "conditions": "DOX 5 μM, 12 h", "description": "as §2"}, "[7]": {"tested_on": "MCF-7 induced solid tumor model", "experiment": "In vivo anti-tumor therapy", "design": "species or system NU/NU nude mice", "description": "The anti-tumor efficacy of DOX@NKsomes was determined along with free DOX and unloaded NKsomes (aka “empty” NKsomes) using MCF-7 induced solid tumor model in immunodeficient NU/NU nude mice (n=3). In brief, 1×10^6 MCF-7 cells in PBS was injected subcutaneously into the hind rear flank region of the mice and the tumor growth is monitored periodically. When the tumor size reached 4-5 mm, animals received 4 cycles of drug treatment at Day 1, 4, 7 and 10 [DOX@NKsomes and free DOX (equivalent DOX concentration of 5 mg/kg)] up to 3 weeks. Control groups were also maintained without any treatment and bare NKsomes (10 mg/kg). During the study, body weight and tumor volume of the animal groups were monitored periodically to assess the therapeutic effects. The tumor volume (V) was determined using V=L×W2/2, where L=length of the tumor and W=width of the tumor. At the end of the study, animals were euthanized, collected tumors and measured its size and weight. Further, the tumor tissues were embedded in OCT, cryosectioned and subjected to immunofluorescence for the qualitative accumulation of NKsomes in tumor tissues by assessing the NKM protein marker (CD 56)."}}}
{"molecule": "lipopolysaccharide [LPS]", "values": [{"measurement": "immunogenicity (IL-1β, IL-6, TNF-α release)", "setting": "[1]", "value": "elevated levels of IL-1β, IL-6, and TNF-α"}]}
{"molecule": "COc1cccc2c1C(=O)c1c(O)c3c(c(O)c1C2=O)C[C@@](O)(C(=O)CO)C[C@@H]3O[C@H]1C[C@H](N)[C@H](O)[C@H](C)O1", "note": "[Free DOX, doxorubicin]", "values": [{"measurement": "immunogenicity (pro-inflammatory cytokines)", "setting": "[2]", "value": "little elevation of IL-10 and TNF-α levels"}, {"measurement": "in vitro cytotoxicity (MTT)", "setting": "[3]", "value": "Dose-dependent cytotoxicity"}, {"measurement": "in vitro cytotoxicity (MTT)", "setting": "[4]", "value": "superior toxicity"}, {"measurement": "G1 fraction", "setting": "[5]", "value": 53, "unit": "%"}, {"measurement": "G2 fraction", "setting": "[5]", "value": 25, "unit": "%"}, {"measurement": "G1 fraction", "setting": "[6]", "value": 53.3, "unit": "%"}, {"measurement": "G2 fraction", "setting": "[6]", "value": 23.6, "unit": "%"}, {"measurement": "tumor inhibition rate (IR %)", "setting": "[7]; DOX 5 mg/kg or bare NKsomes 10 mg/kg, Day 1, 4, 7, 10, from tumor weight", "value": 63.69, "unit": "%"}, {"measurement": "average tumor weight", "setting": "[7]; end of study", "value": "0.3 ± 0.04", "unit": "g"}, {"measurement": "tumor volume change", "setting": "[7]; end of treatment period", "value": "significant reduction in tumor volume"}]}
